Measured values: patent US8029979B2, “Method for determining the substrate specificity of an enzyme” (JPT Peptide Technologies GmbH, priority 2001, dated 2011)
Ends that are not written are not given here. BA1 = not defined here

Columns and labels:
Type in all cases: biochemical
protein kinase C = test: Phosphorylation of glass-immobilised peptide array by protein kinase C (FIG. 8, Example 32); details: protein kinase C 10 U/mL, ATP/γ32P-ATP, 30 min at 25° C., maleinimido-functionalised glass, PhosphorImager
Method: FIG. 8. Precisely 43 serine and/or threonine-containing peptides (potential substrate peptides for kinases) and the corresponding control peptides, each modified at the N-terminus with the dipeptide cysteinyl-β-alanine, were coupled to a maleinimido-functionalised glass surface by a Michael addition (Example 18). In the control peptides the serine and/or threonine residues were replaced by alanine, the sequence remaining otherwise the same. The application was carried out using a NanoPlotter from Gesim. The spot-to-spot distance was 1 mm and 0.8 nL of a peptide solution in 100 mM PBS buffer pH 7.8, containing 20% glycerin, was applied per spot. Here a filled circle represents a serine- or threonine-containing potential substrate peptide and an open circle stands for a control peptide. Three identical subarrays were applied to the glass surface. The numbering of the spots can be seen in FIG. 8C, the sequences of the peptides used are obtained from Example 18. After application of the peptides, the modified glass surface was first pre-incubated for 10 minutes using 10 ml of 100 μM ATP solution in 50 mM of sodium phosphate buffer pH 7.5. The modified glass surface was then covered with a second glass surface and Protein kinase C (10 U/mL) together with ATP/γ^32P-ATP mixture (100 μM/mL; 100 μCi/mL) was then inserted into the intermediate space formed thereby by means of capillary force. After incubation for 30 min at 25° C. the phosphorylation of the corresponding peptides was detected using a FUJIFILM PhosphorImager (Example 38). The spots having higher signal intensity in all three subarrays were assigned to the corresponding peptides phosphorylated by the protein kinase C. […] It is thus clear that such an assembly is suitable for characterising the substrate specificity of a kinase, such as protein kinase C, for example.
Precisely 43 serine- and/or threonine-containing peptides (potential substrate peptides for kinases) and the corresponding control peptides, each modified at the N-terminus with the dipeptide cysteinyl-β-alanine, were coupled to a maleinimido-functionalised glass surface by a Michael addition (see Example 18). The numbering of the spots can be seen from FIG. 8C and the sequences of the peptides used are obtained from Example 18. After application of the peptide, the modified glass surface was first pre-incubated using 10 mL of 100 μM ATP […] solution in 50 mM sodium phosphate buffer pH 7.5 for […] minutes. The modified glass surface was then covered with a cover glass and protein kinase C (10 U/mL) together with ATP/γ-^32P-ATP mixture (100 μM/mL; 100 μCi/mL) was incorporated in the intermediate space formed by means of capillary force. Incubation was then carried out for 30 min at 25° C. […]
(§1) After drying the glass surface the quantity of radioactive phosphate incorporated in the glass-surface-bound peptides was determined using a PhosphorImager system (FLA-3000, FUJIFILM). […]

protein kinase A [1] = molecular target: T1, protein kinase A (Bos taurus, UniProt P00517); test: Incubation of modified glass surface (11760 spots) with protein kinase A (FIG. 6, Example 28); details: bromoketone-functionalised glass, thioamide linkage, protein kinase A 10 U/mL, 30 min at 25° C.
T1 construct: purchased Sigma P26452 as printed
Method: FIG. 6. A glass surface modified with the peptide Leu-Arg-Arg-Ala-Ser-Leu-Gly-thioamide (see Example 24) amino acid sequence was dissolved in 200 mM sodium phosphate buffer pH 5.5 and at room temperature respectively 1 nL of this solution in an assembly of 70 rows and 168 gaps (total 11760) was applied to the bromoketone-functionalised glass surfaces (Example 10) using a NanoPlotter from Gesim. The spot-to-spot distance was 0.3 mm. The glass surfaces thus treated were then subjected to microwave treatment for 2 min and then incubated for 3 hours at room temperature. Pre-incubation was then carried out for 10 minutes using 10 ml of 100 μM ATP solution in 50 mM of sodium phosphate buffer pH 7.5. […] After incubation for 30 min at 25° C. the phosphorylation of the corresponding peptides was detected using a FUJIFILM PhosphorImager. […] It is furthermore clear that the resolution of the PhosphorImager used here is sufficient to analyse more than 11000 measurement points per biochip. […]
After drying the glass surface the quantity of radioactive phosphate incorporated in the glass-surface-bound peptides was determined using a PhosphorImager system (FLA-3000, FUJIFILM) (see FIG. 6).

protein kinase A [2] = molecular target: T1, protein kinase A; test: Phosphorylation of glass-immobilised peptide array by protein kinase A (FIG. 9, Example 33); details: protein kinase A 10 U/mL, ATP/γ32P-ATP, 30 min at 25° C., maleinimido-functionalised glass, PhosphorImager
Method: FIG. 9. Precisely 43 serine and/or threonine-containing peptides (potential substrate peptides for kinases) and the corresponding control peptides, each modified at the N-terminus with the dipeptide cysteinyl-β-alanine, were coupled to a maleinimido-functionalised glass surface by a Michael addition (Example 18). In the control peptides the serine and/or threonine residues were replaced by alanine, the sequence remaining otherwise the same. The application was carried out using a NanoPlotter from Gesim. The spot-to-spot distance was 1 mm and 0.8 nL of a peptide solution in 100 mM PBS buffer pH 7.8, containing 20% glycerin, was applied per spot. Here a filled circle represents a serine- or threonine-containing potential substrate peptide and an open circle stands for a control peptide. Three identical subarrays were applied to the glass surface. The numbering of the spots can be seen in FIG. 9C, the sequences of the peptides used are obtained from Example 18. […] After incubation for 30 min at 25° C. the phosphorylation of the corresponding peptides was detected using a FUJIFILM PhosphorImager (Example 39). […]
as §1

Row | Substance | recognised and phosphorylated by protein kinase C on the modified glass surface (protein kinase C) | also measured
1 | Cys-BA1-Gln-Lys-Arg-Pro-Ser-Gln-Arg-Ser-Lys-Tyr-Leu-NH2 ({Cys-BA1}-QKRPSQRSKYL-NH2; reading uncertain; also: printed as Cys-BA1-Gln-Lys-Arg-Pro-Ser-Gln-Arg-Ser-Lys-Tyr-Leu-NH2) [compound 27] | recognised and phosphorylated | –
2 | Cys-BA1-Ala-Lys-Arg-Arg-Arg-Leu-Ser-Ser-Leu-Arg-Ala-NH2 ({Cys-BA1}-AKRRRLSSLRA-NH2; reading uncertain; also: printed as Cys-BA1-Ala-Lys-Arg-Arg-Arg-Leu-Ser-Ser-Leu-Arg-Ala-NH2) [compound 3] | recognised and phosphorylated | –
3 | Leu-Arg-Arg-Ala-Ser-Leu-Gly-thioamide (LRRASLG-thioamide) | – | linking of the immobilised kinase substrate tolerated by protein kinase A (protein kinase A [1]): tolerated by the protein kinase A
4 | Cys-BA1-Pro-Lys-Asp-Pro-Ser-Gln-Arg-Arg-Arg-NH2 ({Cys-BA1}-PKDPSQRRR-NH2; reading uncertain; also: printed as Cys-BA1-Pro-Lys-Asp-Pro-Ser-Gln-Arg-Arg-Arg-NH2) [compound 43] | recognised and phosphorylated | –
5 | Arg-Arg-Ile-Ser-Lys-Asp-Asn-Pro-Asp-Tyr-Gln-Gln-Asp-BA1-Cys-NH2 (RRISKDNPDYQQD-{BA1-Cys-NH2}; reading uncertain; also: printed as Arg-Arg-Ile-Ser-Lys-Asp-Asn-Pro-Asp-Tyr-Gln-Gln-Asp-BA1-Cys-NH2) [peptide 83] | – | recognised and phosphorylated by protein kinase A on the modified glass surface (protein kinase A [2]): not phosphorylated
6 | Cys-BA1-Pro-Leu-Ser-Arg-Thr-Leu-Ser-Val-Ala-Ala-Lys-Lys-NH2 ({Cys-BA1}-PLSRTLSVAAKK-NH2; reading uncertain; also: printed as Cys-BA1-Pro-Leu-Ser-Arg-Thr-Leu-Ser-Val-Ala-Ala-Lys-Lys-NH2) [compound 23] | recognised and phosphorylated | –
7 | Cys-BA1-Lys-Lys-Arg-Phe-Ser-Phe-Lys-Lys-Ser-Phe-Lys-Leu-NH2 ({Cys-BA1}-KKRFSFKKSFKL-NH2; reading uncertain; also: printed as Cys-BA1-Lys-Lys-Arg-Phe-Ser-Phe-Lys-Lys-Ser-Phe-Lys-Leu-NH2) [compound 41] | recognised and phosphorylated | –
